From patent US20130324542A1, “[1,2,4]TRIAZOLO[4,3-B][1,2,4]TRIAZINE COMPOUNDS, PREPARATION METHOD AND USE THEREOF” (SHANGHAI INSTITUTE OF MATERIA MEDICA, CHINESE ACADEMY OF …, priority 2010, published 2013)

How the values were obtained:
NIH3T3 background cells = experiment: Cell proliferation, SRB assay, NIH3T3 background cells as control; type: cell-based; details: Mus musculus, NIH3T3, 72 h, read-out: inhibition rate (%) on proliferation of NIH3T3 background cells
Procedure: NIH3T3/TPR-Met cells in the logarithmic growth phase and NIH3T3 background cells were seeded in a 96-well microcuture plate at 90111_, per well and cultivated overnight, followed by addition of 104 of the compound at different concentrations. Three concentrations were set, and for each concentration, the test was carried out in triplicate wells. 72 h later, the culture medium was removed. The residue was fixed by precooled 10% TCA at 4° C. for 1 h, washed by distilled water for 5 times and dried at room temperature. After that, 4 mg/mL of sulforodamine B (SRB) in 1% glacial acetic acid was added to each well (1004 per well) for staining at room temperature for 15 min. The excess dye was removed by washed with 1% glacial acetic acid for 5 times and dried in air. At last, 150 μL of Tris-HCL solution (10 mM Tris, pH 10.0) was added to each well. OD values were measured on a multi-well spectrophotometer at […].

c-Met tyrosine kinase = c-Met tyrosine kinase (Homo sapiens, UniProt P08581); experiment: c-Met kinase activity on molecular level (ELISA, Poly(Glu,Tyr)4:1 substrate); type: biochemical; details: ATP 5 μM, 37° C., 1 h
c-Met tyrosine kinase, sequence (P08581 25-1390): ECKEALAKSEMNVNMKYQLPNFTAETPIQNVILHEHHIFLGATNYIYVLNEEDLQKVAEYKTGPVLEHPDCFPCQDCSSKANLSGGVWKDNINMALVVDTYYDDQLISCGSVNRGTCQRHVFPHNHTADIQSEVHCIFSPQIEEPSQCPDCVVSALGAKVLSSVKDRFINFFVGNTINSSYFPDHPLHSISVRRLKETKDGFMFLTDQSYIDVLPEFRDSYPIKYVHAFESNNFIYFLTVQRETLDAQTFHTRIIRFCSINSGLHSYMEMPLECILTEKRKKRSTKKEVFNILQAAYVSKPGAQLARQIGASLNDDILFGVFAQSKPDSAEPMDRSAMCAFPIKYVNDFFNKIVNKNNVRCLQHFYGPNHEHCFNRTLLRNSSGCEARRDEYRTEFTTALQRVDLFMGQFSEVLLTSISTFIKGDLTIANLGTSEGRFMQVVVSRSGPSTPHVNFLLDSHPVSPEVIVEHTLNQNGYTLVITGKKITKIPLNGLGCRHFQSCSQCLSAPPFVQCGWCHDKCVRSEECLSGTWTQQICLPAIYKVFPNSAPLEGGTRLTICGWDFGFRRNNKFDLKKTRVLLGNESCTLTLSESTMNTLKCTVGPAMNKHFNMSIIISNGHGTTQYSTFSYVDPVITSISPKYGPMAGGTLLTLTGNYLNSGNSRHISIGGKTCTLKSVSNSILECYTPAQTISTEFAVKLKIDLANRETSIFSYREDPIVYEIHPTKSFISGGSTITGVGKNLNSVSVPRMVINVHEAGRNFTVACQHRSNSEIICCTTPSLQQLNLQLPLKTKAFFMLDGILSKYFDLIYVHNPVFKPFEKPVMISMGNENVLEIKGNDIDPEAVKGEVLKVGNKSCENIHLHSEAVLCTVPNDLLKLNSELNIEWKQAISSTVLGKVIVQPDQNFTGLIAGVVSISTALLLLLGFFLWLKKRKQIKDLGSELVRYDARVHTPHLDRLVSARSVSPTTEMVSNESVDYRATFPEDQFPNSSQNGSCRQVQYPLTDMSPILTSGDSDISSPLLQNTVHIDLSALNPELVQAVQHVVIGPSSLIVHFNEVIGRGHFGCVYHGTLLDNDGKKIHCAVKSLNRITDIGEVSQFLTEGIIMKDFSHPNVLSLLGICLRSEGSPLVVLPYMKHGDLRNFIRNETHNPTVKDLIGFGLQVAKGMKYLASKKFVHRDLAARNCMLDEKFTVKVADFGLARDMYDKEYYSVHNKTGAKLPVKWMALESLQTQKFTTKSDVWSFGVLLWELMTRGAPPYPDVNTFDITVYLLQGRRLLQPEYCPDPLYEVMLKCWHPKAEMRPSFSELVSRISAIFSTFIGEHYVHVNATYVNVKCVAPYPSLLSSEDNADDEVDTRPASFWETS
Procedure: Poly(Glu, Tyr)4:1 as an enzyme substrate was diluted by potassium ion-free PBS (10 mM, sodium phosphate buffer, 150 mM NaCl, pH7.2-7.4) into a solution of 20 μg/ml. […] After the liquid in wells was removed, the plate was washed three time by T-PBS (PBS solution containing 0.1% Tween-20) at 200 μl/well, 5 min for each time. The ELISA plate was then dried in an oven at 37° C. for 1-2 h.
Each well was added with 50 μL of ATP solution diluted by reaction buffer (50 mM HEPES pH 7.4, 50 mM MgCl2, 0.5 mM MnCl2, 0.2 mM Na3VO4, 1 mM DTT) at a final concentration of 5 μM. Compound diluted by 1% DMSO into a suitable concentration was added at 10 μl/well and then c-Met tyrosine kinase protein diluted by 40 μl of reaction buffer was added. The plate was placed on a shaking table (100 rpm) at 37° C. and incubated for 1 h, and then washed three times by T-PBS. For each assay, triplicate wells without enzyme were used as blank control and wells having the corresponding DMSO concentration without compound were used as negative control. Primary antibody PY99 (p-Tyr (PY99), Cell Signaling Technology, 1:1000 diluted in 5 mg/mL BSA T-PBS) was added at 100 μl/well. The plate was then placed on a shaking table at 37° C. and incubated for 0.5 h, and washed by T-PBS. Secondary antibody horseradish peroxidase-conjugated goat anti-mouse IgG (1:2000 diluted in 5 mg/mL BSA T-PBS) was added at 100 μl/well. The plate was then placed on a shaking table at 37° C. for 0.5 h and washed three times by T-PBS. 2 mg/mL of OPD developer (diluted by a 0.1M citric acid-sodium citrate buffer (pH=5.4) containing 0.03% of H2O2) was added at 100 μl/well, and the plate was kept in dark at 25° C. for 1-10 min. OPD was ultrasonically dissolved and the developer solution was prepared just before use. 2 M of H2SO4 was added at 50 μl/well to stop the reaction. The plate was read using a wavelength regulated multi-well spectrophotometer (SPECTRA MAX 190) at 490 nm.
The inhibition rate was calculated according to the following equation:
Inhibition rate (%)=(1−(ODcompound−ODblank)/(ODnegative−ODblank))×100%
IC50 value was calculated through a four-parameter fit according to the inhibition curve.

NIH3T3/TPR-Met cells = experiment: Cell proliferation mediated by c-Met, SRB assay, NIH3T3/TPR-Met cells; type: cell-based; details: Mus musculus, NIH3T3, 72 h, read-out: inhibition rate (%) on proliferation of NIH3T3/TPR-Met cells
Procedure: Three concentrations were set, and for each concentration, the test was carried out in triplicate wells. 72 h later, the culture medium was removed. The residue was fixed by precooled 10% TCA at 4° C. for 1 h, washed by distilled water for 5 times and dried at room temperature. […] The excess dye was removed by washed with 1% glacial acetic acid for 5 times and dried in air. At last, 150 μL of Tris-HCL solution (10 mM Tris, pH 10.0) was added to each well.

SMILES | IC50 (c-Met tyrosine kinase) [nM] | inhibition at 1 µM (NIH3T3 background cells) [%] | inhibition at 10 µM (NIH3T3 background cells) [%] | inhibition at 50 µM (NIH3T3 background cells) [%] | inhibition at 1 µM (NIH3T3/TPR-Met cells) [%] | inhibition at 10 µM (NIH3T3/TPR-Met cells) [%] | inhibition at 50 µM (NIH3T3/TPR-Met cells) [%]
c1ccc(COc2ccc(-c3cnc4nnc(Cc5ccc6ncccc6c5)n4n3)cc2)cc1 [Compound I-2, 3-(6-quinolylmethyl)-6-(4-benzyloxyphenyl)-[1,2,4]triazolo[4,3-b][1,2,4]triazine] |  | 16.2 | 28.4 | 33.1 |  |  | 
CCCn1cc(-c2cnc3nnc(Cc4c[nH]c5ccccc45)n3n2)cn1 [Compound I-9, 3-(3-indolylmethyl)-6-[(1-propyl)-4-pyrazolyl]-[1,2,4]triazolo[4,3-b][1,2,4]triazine] | 223 | 17.8 | 22.7 | 37.3 | 5 | 9.4 | 67.5
FC(F)(c1ccc2ncccc2c1)c1nnc2ncc(-c3ccc(OCc4ccccc4)cc3)nn12 [Compound I-24, 3-[(6-quinolyl)difluoromethyl]-6-(4-benzyloxy-phenyl)-[1,2,4]triazolo[4,3-b][1,2,4]triazine] | 2.9 | 16.9 | 23.6 | 32.8 | 83.5 | 87.7 | 87.2
Brc1ccc(-c2cnc3nnc(Cc4ccc5ncccc5c4)n3n2)cc1 [Compound I-17, 3-(6-quinolylmethyl)-6-(4-bromophenyl)-[1,2, 4]triazolo[4,3-b][1,2,4]triazine] |  | 24.9 | 35.9 | 34.9 |  |  | 
FC(F)(c1ccc2ncccc2c1)c1nnc2ncc(-c3cnn(C4CCNCC4)c3)nn12 [Compound I-21, 3-[(6-quinolyl)difluoromethyl]-6-[1-(4-piperidyl)-4-pyrazolyl]-[1,2,4]triazolo[4,3-b][1,2,4] triazine] | 81.6 | 12 | 25.5 | 28.4 | 6 | 76.8 | 85.1
c1ccc(COc2ccc(-c3cnc4nnc(Cc5c[nH]c6ccccc56)n4n3)cc2)cc1 [Compound I-18, 3-(3-indolylmethyl)-6-(4-bnzyloxyphenyl)-[1,2,4]triazolo[4,3-b][1,2,4]triazine] |  | 17.5 | 20.8 | 28.7 |  |  | 

Further lines, with some results ahead:

IC50 (c-Met tyrosine kinase) [nM] | SMILES | inhibition at 1 µM (NIH3T3 background cells) [%] | inhibition at 10 µM (NIH3T3 background cells) [%] | inhibition at 50 µM (NIH3T3 background cells) [%] | inhibition at 1 µM (NIH3T3/TPR-Met cells) [%] | inhibition at 10 µM (NIH3T3/TPR-Met cells) [%] | inhibition at 50 µM (NIH3T3/TPR-Met cells) [%]
3.7 | COC(=O)c1ccc(-c2cnc3nnc(COc4ccnc5cc(OC)c(OC)cc45)n3n2)cc1 [II-18, 3-[(6,7-dimethoxy-4-quinolyl)oxymethyl]-6-(4-methoxyformylphenyl)-[1,2,4]triazolo[4,3-b] [1,2,4]triazine] | 29.6 | 37.3 | 63.5 | 5.6 | 22.9 | 82.6
0.3 | COc1cc2nccc(OCc3nnc4ncc(-c5ccc(OCc6ccccc6)cc5)nn34)c2cc1OC [II-19, 3-[(6,7-dimethoxy-4-quinolyl)oxymethyl]-6-(4-benzyloxyphenyl)-[1,2,4]triazolo[4,3-b][1,2,4] triazine] | 24.9 | 31.1 | 83.4 | 6.55 |  | 97
2.4 | COc1ccc2c(OCc3nnc4ncc(-c5cnn(C)c5)nn34)ccnc2c1 [II-29, 3-[(7-methoxy-4-quinolyl)oxymethyl]-6-[(1-methyl)-4-pyrazolo]-[1,2,4]triazolo[4,3-b][1,2,4] triazine] | 31.8 | 32.9 | 50.9 | 87.4 | 88.2 | 91.9
3 | COc1cc2nccc(OCc3nnc4ncc(-c5ccc(F)cc5)nn34)c2cc1OC [II-14, 3-[(6,7-dimethoxy-4-quinolyl)oxymethyl]-6-(4-fluorophenyl)-[1,2,4]triazolo[4,3-b][1,2,4] triazine] |  | 0 |  |  | 75.6 | 
0.2 | COc1cc2nccc(OCc3nnc4ncc(-c5ccc(Br)cc5)nn34)c2cc1OC [II-16, 3-[(6,7-dimethoxy-4-quinolyl)oxymethyl]-6-(4-bromophenyl)-[1,2,4]triazolo[4,3-b][1,2,4] triazine] |  | 56.2 |  |  | 87.9 | 
2.9 | COc1cc2nccc(OCc3nnc4ncc(-c5ccccc5)nn34)c2cc1OC [II-17, 3-[(6,7-dimethoxy-4-quinolyl)oxymethyl]-6-phenyl-[1,2,4]triazolo[4,3-b][1,2,4]triazine] |  | 1.2 |  |  | 65.2 | 
7.9 | Cc1[nH]c(/C=C2\C(=O)Nc3ccc(S(=O)(=O)N(C)c4cccc(Cl)c4)cc32)c(C)c1C(=O)N1CCN(C)CC1 [SU11274, reference compound] | 19.9 | 44.2 | 70.6 | 8.5 | 80.1 | 88.7
0.7 | COc1ccc2c(OCc3nnc4ncc(-c5ccc(Cl)c(Cl)c5)nn34)ccnc2c1 [II-20, 3-[(7-methoxy-4-quinolyl)oxymethyl]-6-(3,4-dichlorophenyl)-[1,2,4]triazolo[4,3-b][1,2,4] triazine] | 10.4 | 22.5 | 21.4 | 78.7 | 89.4 | 86.7
32.4 | COc1ccc2c(OCc3nnc4ncc(-c5ccc(OCc6ccccc6)cc5)nn34)ccnc2c1 [II-8, 3-[(7-methoxy-4-quinolyl)oxymethyl]-6-(4-benzyloxyphenyl)-[1,2,4]triazolo[4,3-b][1,2,4] triazine] |  | 7.5 |  |  | 81.2 | 
0.88 | Oc1cccc(-c2cnc3nnc(COc4ccnc5ccccc45)n3n2)c1 [II-27, 3-(4-quinolyloxymethyl)-6-(3-hydroxyphenyl)-[1,2,4]triazolo[4,3-b][1,2,4]triazine] | 18.3 | 37.7 | 46 | 9.2 | 72.6 | 80.7
0.56 | COc1ccc2c(OCc3nnc4ncc(-c5ccc([N+](=O)[O-])cc5)nn34)ccnc2c1 [II-6, 3-[(7-methoxy-4-quinolyl)oxymethyl]-6-(4-nitrophenyl)-[1,2,4]triazolo[4,3-b][1,2,4]triazine] | 46.2 | 53.3 | 50.6 | 78.6 | 82.4 | 82.3
0.23 | COc1ccc2c(OCc3nnc4ncc(-c5ccc(Br)cc5)nn34)ccnc2c1 [II-3, 3-[(7-methoxy-4-quinolyl)oxymethyl]-6-(4-bromophenyl)-[1,2,4]triazolo[4,3-b][1,2,4]triazine] |  | 33.8 |  |  | 77.3 | 
